According to patent US20140356325A1, “NOVEL 2'-C-METHYL NUCLEOSIDE DERIVATIVE COMPOUNDS” (Ligand Pharmaceuticals Incorporated, priority 2012, published 2014):
Structures can show the parent of a compound that is named as a salt.

First: CCOc1nc(N)nc2c1ncn2[C@@H]1O[C@H](CO[P@@]2(=O)OCC[C@@H](c3cccc(Cl)c3)O2)[C@@H](OC(=O)C2CCCC2)[C@@]1(C)O [Compound 186, 2(R)-(2-Amino-6-ethoxy-9(H)-purinyl)-5(R)-(4(S)-(3-chlorophenyl)-2-oxo-1,3,2-dioxaphosphorinan-2(R)-yloxymethyl)-3(R)-hydroxy-3(R)-methyl-4(R)-cyclopentylcarboxy-tetrahydrofuran]
Second: CCOc1nc(N)nc2c1ncn2[C@@H]1O[C@H](CO[P@@]2(=O)OCC[C@@H](c3cccc(Cl)c3)O2)[C@@H](OC(=O)C(C)C)[C@@]1(C)O (as salt: trifluoroacetate) [Compound 185, 2(R)-(2-Amino-6-ethoxy-9(H)-purinyl)-5(R)-(4(S)-(3-chlorophenyl)-2-oxo-1,3,2-dioxaphosphorinan-2(R)-yloxymethyl)-3(R)-hydroxy-3(R)-methyl-4(R)-isobutyryloxy-tetrahydrofuran]
The melting point of the first is lower: 106 to 111 °C for the first, 162 to 165 °C for the second.

Compared with `CC(C)COc1nc(N)nc2c1ncn2[C@@H]1O[C@H](CO[P@@]2(=O)OCC[C@@H](c3cccc(Cl)c3)O2)[C@H]2OC(=O)O[C@]21C` [Compound 122, 2(R)-(2-Amino-6-(2-methylpropyloxy)-9(H)-purinyl)-4(R)-(4(S)-(3-chlorophenyl)-2-oxo-1,3,2-dioxaphosphorinan-2(R)-yloxymethyl)-1(R)-methyl-7-oxo-3,6,8-trioxa-cis-bicyclo[3.3.0]octane], `CCC(CC)COc1nc(N)nc2c1ncn2[C@@H]1O[C@H](CO[P@@]2(=O)OCC[C@@H](c3cccc(Cl)c3)O2)[C@H]2OC(=O)O[C@]21C` [Compound 143, 2(R)-(2-Amino-6-(2-ethylbutyloxy)-9(H)-purinyl)-4(R)-(4(S)-(3-chlorophenyl)-2-oxo-1,3,2-dioxaphosphorinan-2(R)-yloxymethyl)-1(R)-methyl-7-oxo-3,6,8-trioxa-cis-bicyclo[3.3.0]octane] is lower in melting point: 118 to 122 °C for the first, 72 to 75 °C for the second.

Compared with `C[C@@]12OC(=O)O[C@@H]1[C@@H](CO[P@@]1(=O)OCC[C@@H](c3cccc(Cl)c3)O1)O[C@H]2n1cnc2c(OCC3CCOCC3)nc(N)nc21` [Compound 129, 2(R)-(2-Amino-6-(4-tetrahydropyranylmethoxy)-9(H)-purinyl)-4(R)-(4(S)-(3-chlorophenyl)-2-oxo-1,3,2-dioxaphosphorinan-2(R)-yloxymethyl)-1(R)-methyl-7-oxo-3,6,8-trioxa-cis-bicyclo[3.3.0]octane], `C[C@@]12OC(=O)O[C@@H]1[C@@H](CO[P@@]1(=O)OCC[C@@H](c3cccc(Cl)c3)O1)O[C@H]2n1cnc2c(OCC3CCC3)nc(N)nc21` [Compound 140, 2(R)-(2-Amino-6-cyclobutylmethoxy-9(H)-purinyl)-4(R)-(4(S)-(3-chlorophenyl)-2-oxo-1,3,2-dioxaphosphorinan-2(R)-yloxymethyl)-1(R)-methyl-7-oxo-3,6,8-trioxa-cis-bicyclo[3.3.0]octane] is lower in melting point: 105 to 108 °C for the first, 92 to 94 °C for the second.

`COc1nc(N)nc2c1ncn2[C@@H]1O[C@H](CO[P@@]2(=O)OCC[C@@H](c3cccc(Cl)c3)O2)[C@H]2OC(=O)O[C@]21C` [Compound 119, 2(R)-(2-Amino-6-methoxy-9(H)-purinyl)-4(R)-(4(S)-(3-chlorophenyl)-2-oxo-1,3,2-dioxaphosphorinan-2(R)-yloxymethyl)-1(R)-methyl-7-oxo-3,6,8-trioxa-cis-bicyclo[3.3.0]octane] and `CCOc1nc(N)nc2c1ncn2[C@@H]1O[C@H](CO[P@@]2(=O)OCC[C@@H](c3cccc(Cl)c3)O2)[C@@H](OC(=O)[C@@H](N)C(C)C)[C@@]1(C)O` (as salt: trifluoroacetate) [Compound 184, 2(R)-(2-Amino-6-ethoxy-9(H)-purinyl)-5(R)-(4(S)-(3-chlorophenyl)-2-oxo-1,3,2-dioxaphosphorinan-2(R)-yloxymethyl)-3(R)-hydroxy-3(R)-methyl-4(R)-L-valinyl-tetrahydrofuran] cannot be ordered by melting point: 125 to 130 °C for the first, 128 to 130 °C for the second.
